# Laboratory results reported in paper PMC11184559, “Identification and Validation of Compounds Targeting Leishmania major Leucyl-Aminopeptidase M17” (ACS Infectious Diseases, 2024).
# Like-named read-outs stand apart in the source and are kept apart here.
# How the values were obtained:
# [1] = system: L. donovani intracellular amastigotes; assay: Leishmania donovani intracellular (intramacrophage) assay, single concentration; format: cell-based; conditions: 96 h, intracellular amastigotes in macrophages, Hoechst imaging; for Inhibition of L. donovani proliferation (%): 50 μM; for inhibition at 50 µM: Leishmania donovani, Macrophage, read-out: Inhibition of L. donovani proliferation (%)
# Procedure: The effect of the compounds selected as inhibitors of rLmLAP on the proliferation of L. donovani amastigotes was evaluated at a concentration of 50 μM. Macrophage cultures (ECACC, catalog number: 88081201) were used as host cells. Parasites were incubated with 4.27× 10^7 macrophages, at a multiplicity of infection (MOI) of 5, at 37 °C with 5% CO2, overnight in DMEM medium supplemented with 4.5 g/L glucose and glutamine and 10% FBS, in a Millicell HY T-600 three-layer culture flask (Merck Millipore, Solna, Sweden). […] Macrophages were incubated for another 24 h in the above conditions with 133 μL of fresh DMEM medium prewarmed at 37 °C and supplemented with 10% FBS to obtain a high count of intracellular amastigotes.
# Forty-two hours after macrophage infection, compounds (50 μM, 250 nL in DMSO) were dispensed using LabCyte ECHO into each well of 384-well dark flat bottom plates (Corning, New York, USA). The plates were incubated at 37 °C, 5% CO2, for 4 h (without compounds, with DMSO, to determine the initial level of infection) and for 96 h (with and without compounds).
# [2] = system: LmLAP-overexpressing L. major promastigotes; assay: Drug sensitivity assay (resazurin), LmLAP-overexpressing L. major promastigotes; format: cell-based; conditions: Leishmania major
# Procedure: The basic L. major cytosolic leucyl aminopeptidase gene (LmjF.23.0950) was synthesized (GeneArt, Invitrogen) and cloned into the overexpression vector pIRT1_SAT by using BglII restriction sites. The pIRT1_SAT_LmLAP construct was sequenced to confirm correct sequence. Mid log phase L. major cells (1 × 10^7 cells) were transfected with 10 μg of heat-sterilized DNA using the Human T-Cell Nucleofector kit and AMAXA Nucleofector electroporator (program V-033). After a 24 h recovery period, nourseothricin was added to cultures to a final concentration of 100 μg/mL.
# L. major promastigotes were seeded in 96-well plates at 5 × 10^4/mL, exposed to 2-fold serial dilutions of test compounds, and incubated at 28 °C for 72 h. Resazurin was, then, added to each well to a final concentration of 50 μM, and fluorescence was measured after 2–3 h (excitation of 528 nm and emission of 590 nm). The EC50 was calculated by processing the collected data by GRAFIT (version 5.0.4, Erithacus Software) and fitting them to the following two-parameter equation: [drawing 6] 6 where [I] is the inhibitor concentration, and m is the slope. Experiments were performed on at least three independent biological replicates. Data are presented as the weighted mean ± standard deviation.
# [3] = system: LmjF.11.0630 (metallo-peptidase, Clan MF, Family M17); assay: Isothermal TPP (iTPP) thermal stabilization, LmjF.11.0630; format: binding, Leishmania major; conditions: L. major promastigote lysate, 47 °C, compound at 10× EC50 vs DMSO
# Procedure: Cell lysates were obtained as detailed above. Isothermal TPP assays were performed as previously described[29] but here lysates were incubated at two temperatures: 28 and 47 °C. The first temperature (28 °C) acts as a control temperature at which the protein levels are not altered by the presence of the test compound. The second temperature (47 °C) is the Leishmania spp. median Tm (melting temperature or temperature 50%) according to our interim data. […] These samples were aliquoted and submitted to a temperature shock at the designated temperature for 3 min, then 3 min at room temperature, and finally 3 min on ice. The soluble part was isolated by ultracentrifugation (100,000g, 20 min, 4 °C).
# All aspects of sample processing, TMT-labeling, fractionation by HPLC into 10 fractions, LC-MS/MS, and protein identification and quantitation were described previously.[28],[68] Proteins with less than three peptides and those with increased stability at 28 °C were disregarded.
# Proteins were identified by searching the MS and MS/MS data for the peptides against L. major strain Friedlin (TriTryp version 61, tritrypdb.org) using MaxQuant (http://maxquant.org/, version 2.1.4.0). All proteomics data sets have been deposited to the ProteomeXchange Consortium via the PRIDE[69] partner repository with the identifier PXD00000. Data were analyzed with Perseus v 1.6.15.[70] The reporter intensities of each protein were extracted and normalized to the control temperature reporter intensity (28 °C), then these normalized values were used to calculate the log2 transformed fold-changes (FC) of […] samples. Proteins stabilized (log2 FC > 1 in both replicates) were selected as putative hits.
# [4] = 72 h, read-out: EC50 (weighted mean), LmLAP-overexpressing (LAP-OE) L. major promastigotes
# [5] = read-out: EC50 (LAP-OE), representative curve
SMILES,Inhibition of L. donovani proliferation (%) [1],inhibition at 50 µM [1],"EC50 [2, 4]","EC50 [2, 5]","Enrichment (log2) replica A, LmjF.11.0630 [3]","Enrichment (log2) replica B, LmjF.11.0630 [3]"
COc1ccc(Cc2c(N)nc(-c3ccccn3)nc2N)cc1 [DDD00057570],98.4 ± 2.9%,98 ± 2.9%,7 ± 1 µM,6.9 ± 1 µM,1.47 log2,1.34 log2
O=C(c1cccs1)N(CCCn1ccnc1)c1nc2ccccc2s1 [DDD00097924],77.8 ± 3.1%,78%,11 ± 1 µM,7.3 ± 1.4 µM,2.19 log2,1.99 log2
